Assay results published in ChEMBL document CHEMBL1131966, “On topography and functionality in the B-D rings of cephalostatin cytotoxins” (Bioorg Med Chem Lett, 1999).

What was measured:
[1] = system: P388; assay: In vitro cytotoxicity against P388 leukemic cell line following a 6 day exposure.; format: functional, cell-based; conditions: Mus musculus, P388, 144 h
[2] = system: A549; assay: In vitro cytotoxicity against Lung A-549 human tumors following a 2 day exposure.; format: functional; conditions: A549, 48 h
[3] = system: A498; assay: In vitro cytotoxicity against Renal A-498 human tumors following a 2 day exposure.; format: functional; conditions: A498, 48 h
[4] = system: SF-295; assay: In vitro cytotoxicity against CNS SF-295 human tumors following a 2 day exposure.; format: functional; conditions: SF-295, 48 h
[5] = system: HL-60; assay: In vitro cytotoxicity against HL-60 leukemia human tumors following a 2 day exposure.; format: functional; conditions: HL-60, 48 h
[6] = system: HT-29; assay: In vitro cytotoxicity against Colon HT-29 human tumors following a 2 day exposure.; format: functional; conditions: HT-29, 48 h
[7] = system: IGROV-1; assay: In vitro cytotoxicity against Ovary IGROVIg OVI human tumors following a 2 day exposure.; format: functional; conditions: IGROV-1, 48 h
[8] = system: LOX IMVI; assay: In vitro cytotoxicity against Skin LOX IMVI human tumors following a 2 day exposure.; format: functional; conditions: 48 h
[9] = system: MCF7; assay: In vitro cytotoxicity against Breast MCF-7 human tumors following a 2 day exposure.; format: functional; conditions: 48 h
[10] = system: Panel NCI-60 (60 carcinoma cell lines); assay: In vitro cytotoxicity against a subset of 60 cell lines (NCI-60) in human tumors following a 2 day exposure. Values in parentheses is the % cell lines affected.; format: functional; conditions: 48 h
[11] = system: NCI; assay: In vitro cytotoxicity against a subset of 10 cell lines (NCI-10) in human tumors following a 2 day exposure. Values in parentheses is the % cell lines affected.; format: functional; conditions: 48 h
[12] = system: PC-3; assay: In vitro cytotoxicity against prostate PC-3 human tumors following a 2 day exposure.; format: functional; conditions: PC-3, 48 h
[13] = system: RXF 393; assay: In vitro cytotoxicity against Renal RXF-393 human tumors following a 2 day exposure.; format: functional; conditions: RXF 393, 48 h
[14] = system: A498; assay: In vitro cytotoxicity against Renal A-498 human tumors following a 6 day exposure.; format: functional; conditions: A498, 144 h, read-out: ED50 (the source's name)
[15] = system: A549; assay: In vitro cytotoxicity against Lung A-549 human tumors following a 6 day exposure.; format: functional; conditions: A549, 144 h, read-out: ED50 (the source's name)
[16] = system: HT-29; assay: In vitro cytotoxicity against Colon HT-29 human tumors following a 6 day exposure.; format: functional; conditions: HT-29, 144 h, read-out: ED50 (the source's name)
[17] = species: Homo sapiens; assay: In vitro cytotoxicity against various human tumors (6-8 lines) as determined in the Purdue cell culture laboratory, following a 6 day exposure; format: functional; conditions: 144 h, read-out: ED50 (the source's name)
[18] = species: Homo sapiens; assay: In vitro cytotoxicity against Breast avg 1-3 types of human tumors following a 6 day exposure.; format: functional; conditions: 144 h, read-out: ED50 (the source's name)
[19] = system: MIA PaCa-2; assay: (§1) In vitro cytotoxicity against […] PACA-2 human tumors following a 6 day exposure; format: functional; conditions: MIA PaCa-2, 144 h, read-out: ED50 (the source's name)
[20] = system: PC-3; assay: In vitro cytotoxicity against prostate PC-3 human tumors following a 6 day exposure; format: functional; conditions: PC-3, 144 h, read-out: ED50 (the source's name)
[21] = system: NCI; assay: In vitro cytotoxicity against a subset of 10 cell lines (NCI-10) in human tumors following a 2 day exposure; ND is no data; format: functional; conditions: 48 h
[22] = as §1; format: functional; conditions: PaCa-2, 144 h, read-out: ED50 (the source's name)

| Structure (SMILES) | IC50 [1] [nM] | GI50 [2] [nM] | GI50 [3] [nM] | GI50 [4] [nM] | GI50 [5] [nM] | GI50 [6] [nM] | GI50 [7] [nM] | GI50 [8] [nM] | GI50 [9] [nM] | GI50 [10] [nM] | GI50 [11] [nM] | GI50 [12] [nM] | GI50 [13] [nM] | EC50 [16] [nM] | EC50 [18] [nM] | also measured |
| --- | --- | --- | --- | --- | --- | --- | --- | --- | --- | --- | --- | --- | --- | --- | --- | --- |
| C[C@@H]1[C@@]2(CC[C@](C)(O)CO2)O[C@H]2C=C3[C@@H]4[C@@H](O)C[C@H]5Cc6nc7c(nc6C[C@]5(C)[C@H]4C[C@@H](O)[C@]3(C)[C@]21O)C[C@@H]1CC[C@H]2C3=C[C@@H]4O[C@]5(CC[C@@](C)(O)CO5)[C@@H](C)[C@]4(O)[C@@]3(C)[C@H](O)C[C@@H]2[C@@]1(C)C7 [RITTERAZINE J] | 14 |  |  |  |  |  |  |  |  |  |  |  |  |  |  |  |
| C[C@@H]1C2(OC3C=C4C5CCC6Cc7nc8c(nc7C[C@]6(C)C5C[C@@H](O)[C@]4(C)C31O)CC1CCC3C4=CC5OC6(CCC(C)(C)O6)[C@@H](C)C5[C@@]4(C)[C@H](O)CC3[C@@]1(C)C8)O[C@](C)(CO)C[C@H]2O (stereo partly specified) [RITTEROSTATIN] |  | 7.4 | 3 | 0.99 | 1.6 | 65 | 140 | 9.7 | 3.4 | 14 | 3.8 | 1.8 | 0.1 |  |  |  |
| C[C@@H]1C2(OC3C=C4C5CCC6Cc7nc8c(nc7C[C@]6(C)C5C[C@@H](O)[C@]4(C)C31O)CC1CCC3C(CC(=O)[C@]45CO[C@@]6(OC(C)(C)C[C@H]6O)[C@@H](C)C4CCC35)[C@@]1(C)C8)O[C@](C)(CO)C[C@H]2O (stereo partly specified) [DIHYDROCEPHALOSTATIN 1] |  | 0.59 | 3.6 | < 0.1 | 0.12 | 1.1 | 2.9 | 0.17 | 3.5 | 2.4 | 0.8 | 0.22 | < 0.1 |  |  |  |
| C[C@H]1C2C(C[C@H]3C4CCC5Cc6nc7c(nc6C[C@]5(C)C4C[C@@H](O)[C@]23C)CC2CCC3C4=CC5O[C@]6(CC[C@](C)(O)CO6)[C@@H](C)C5(O)[C@@]4(C)[C@H](O)CC3[C@@]2(C)C7)OC12CCC(C)(C)O2 (stereo partly drawn) [14-EPI-7'-DEOXYRITTERAZINE B] |  | 76 | > 300 | 9.3 | > 660 | > 650 | > 1000 | 45 | 56 | > 105 | > 55 | 40 | 4.1 |  |  |  |
| C[C@@H]1[C@]2(O[C@H]3C=C4[C@@H]5CC[C@H]6Cc7nc8c(nc7C[C@]6(C)[C@H]5C[C@@H](O)[C@]4(C)[C@]31O)C[C@@H]1CC[C@H]3C4=CC[C@@H]5[C@H](C)[C@@]6(OC[C@]45C(=O)C[C@@H]3[C@@]1(C)C8)OC(C)(C)C[C@H]6O)O[C@](C)(CO)C[C@H]2O [CEPHALOSTATIN 1] |  | 0.4 | < 0.1 | < 0.1 | 0.2 | 6.3 | 10 | 0.4 | 2.5 | 1.2 | 0.8 | < 0.1 | < 0.1 |  |  |  |
| C[C@@H]1[C@@]2(CC[C@](C)(O)CO2)O[C@H]2C=C3[C@@H]4[C@@H](O)C[C@H]5Cc6nc7c(nc6C[C@]5(C)[C@H]4C[C@@H](O)[C@]3(C)[C@]21O)C[C@@H]1CC[C@H]2[C@H]3C[C@@H]4O[C@@]5(CCC(C)(C)O5)C[C@@H]4[C@@]3(C)C(=O)C[C@@H]2[C@@]1(C)C7 [RITTERAZINE H] | 18 |  |  |  |  |  |  |  |  |  |  |  |  |  |  |  |
| COc1cccc2c1C(=O)c1c(O)c3c(c(O)c1C2=O)C[C@@](O)(C(=O)CO)C[C@@H]3O[C@H]1C[C@H](N)[C@H](O)[C@H](C)O1 [DOXORUBICIN] |  |  |  |  |  |  |  |  |  |  |  |  |  | 37 | 150 | EC50 [14]: 3.5 nM; EC50 [15]: 6.2 nM; EC50 [17]: 18.7 nM; EC50 [19]: 6.3 nM; EC50 [20]: 57 nM |
| C[C@@H]1[C@@]2(CC[C@](C)(O)CO2)O[C@H]2C=C3[C@@H]4[C@@H](O)C[C@H]5Cc6nc7c(nc6C[C@]5(C)[C@H]4C[C@@H](O)[C@]3(C)[C@]21O)C[C@@H]1CC[C@H]2[C@H]3C[C@@H]4O[C@@]5(CCC(C)(C)O5)C[C@@H]4[C@@]3(C)[C@H](O)C[C@@H]2[C@@]1(C)C7 [RITTERAZINE B] | 0.17 |  |  | < 0.1 | 0.16 |  |  |  |  |  |  |  | < 0.1 |  | 0.0021 | GI50 [21]: 1 nM |
| C[C@H]1C2C(CC3C4CCC5Cc6nc7c(nc6C[C@]5(C)C4CC(=O)[C@@]32C)CC2CC(=O)C3C4=CC5O[C@]6(CC[C@](C)(O)CO6)[C@@H](C)C5(O)[C@@]4(C)[C@H](O)CC3[C@@]2(C)C7)OC12CCC(C)(C)O2 (stereo partly specified) | 19 |  |  |  |  |  |  |  |  |  |  |  |  |  |  |  |
| C[C@@H]1C2(OC3C=C4C5CCC6Cc7nc8c(nc7C[C@]6(C)C5C[C@@H](O)[C@]4(C)C31O)CC1CCC3C4=CCC5[C@H](C)[C@@]6(OC[C@]45[C@H](O)CC3[C@@]1(C)C8)OC(C)(C)C[C@H]6O)O[C@](C)(CO)C[C@H]2O (stereo partly specified) |  |  |  |  |  |  |  |  |  |  |  |  |  | 0.0012 | 0.0011 |  |
| C[C@@H]1[C@]2(O[C@H]3C=C4[C@@H]5CC[C@H]6Cc7nc8c(nc7C[C@]6(C)[C@H]5C[C@@H](O)[C@]4(C)[C@]31O)C[C@@H]1CC[C@H]3C4=C[C@@H]5O[C@]6(CC[C@](C)(O)CO6)C[C@]5(O)[C@@]4(C)[C@H](O)C[C@@H]3[C@@]1(C)C8)O[C@](C)(CO)C[C@H]2O [CEPHALOSTATIN 7] |  | 138 | 31 | 11 | 25 | 271 | 480 | 37 | 27 | 50 | 16 | 23 | 7.9 | 30 | 38 | EC50 [17]: 0.052 nM; EC50 [22]: 0.41 nM; EC50 [20]: 0.0021 nM |
| C[C@@H]1[C@@]2(CC[C@](C)(O)CO2)O[C@H]2C=C3[C@H]4CC[C@H]5Cc6nc7c(nc6C[C@]5(C)[C@H]4C[C@@H](O)[C@]3(C)[C@]21O)C[C@@H]1CC[C@H]2C3=C[C@@H]4O[C@]5(CC[C@@](C)(O)CO5)[C@@H](C)[C@]4(O)[C@@]3(C)[C@H](O)C[C@@H]2[C@@]1(C)C7 [RITTERAZINE K] | 10 | 110 | 190 | 4.1 | 4.4 | 288 | 347 | 20 | 100 | 96 | 4.5 | 91 | 1.4 | 28 | 11 | EC50 [17]: 0.047 nM; EC50 [19]: 0.051 nM; EC50 [20]: 0.0021 nM |
| CC(=O)O[C@H]1CC2Cc3nc4c(nc3C[C@]2(C)C2C[C@@H](O)[C@@]3(C)C(=CC5O[C@]6(CC[C@](C)(O)CO6)[C@@H](C)C53O)C21)CC1CCC2C(C[C@@H](O)[C@@]3(C)C2CC2OC5(CCC(C)(C)O5)[C@@H](C)C23)[C@@]1(C)C4 (stereo partly specified) | 96 |  |  |  |  |  |  |  |  |  |  |  |  |  |  |  |
| CC1C2(O)C(C=C3C4CCC5Cc6nc7c(nc6C[C@]5(C)C4C[C@@H](O)[C@@]32C)CC2CCC3C4=CC5OC6(CCC(C)(C)O6)[C@@H](C)C5[C@@]4(C)[C@H](O)CC3[C@@]2(C)C7)O[C@]12CC[C@](C)(O)CO2 (stereo partly specified) |  | 76 | 0.55 | 1.2 | 1.2 | > 650 | > 1000 | 12 | 37 | > 34 | 4.2 | 12 | 0.55 | 0.012 | 0.036 |  |
